Data taken from patent US20060189546A1, “Compounds for treating autoimmune and demyelinating diseases” (priority 2005, published 2006).

Experiments:
[1] = system: IL-10; test: Mediator release, IL-10 (Con A-stimulated PBML, sandwich ELISA); assay type: cell-based; settings: Homo sapiens, IL-10 release
Method: (§1) In this experiment, test compound and/or vehicle were preincubated with human peripheral blood mononuclear leukocyte (PBML, 1×10^6/ml) in RPMI buffer pH 7.4 for 2 hours. Concanavalin A (Con A, 20 μg/ml) was then added to stimulate the cells overnight in 5% CO2 at 37° C. IL-4 and IL-10 cytokine levels in the conditioned medium were then quantified using a sandwich ELISA kit. Compounds were screened at 10, 1, 0.1, 0.01 and 0.001 μM.

[2] = system: IL-4; test: Mediator release, IL-4 (Con A-stimulated PBML, sandwich ELISA); assay type: cell-based; settings: Homo sapiens
Method: as §1

[3] = system: B-lymphocyte cells; test: Cell Proliferation, B-Cell + LPS ([3H]thymidine incorporation); assay type: cell-based, balb/c mice; settings: Mus musculus
Method: B-lymphocyte cells isolated from the spleen of balb/c mice weighing 17±1 g were used. Test compound and/or vehicle were incubated with the cells (1.5×10^6/ml) in the presence of 10 μg/ml lipopolysaccharide (LPS) in AIM-V medium pH 7.4 at 37° C. for 24 hours. [^3H]Thymidine (120 nM) was then added for an additional overnight incubation period. Thymidine incorporation was assessed by liquid scintillation counting.
Test compound-induced suppression of cell proliferation by 50 percent or more (≧50%) relative to vehicle control response indicates significant inhibitory activity.

[4] = system: Experimental Autoimmune Encephalomyelitis (EAE); test: Acute EAE, daily dosing for 15 days (Example 5); assay type: in vivo, guinea pigs
Method: Accordingly, three randomized cohorts of guinea pigs with EAE induced by the method of Example 2, were treated, respectively, with 6 mg/kg of Symadex™ (full salt hydrate) and 0.35 mg/kg of mitoxantrone. Animals were treated daily, by intraperitoneal injection, for 15 days, starting on day 7 post immunization. Controls were treated with vehicle. We reasoned that 15 consecutive, 6 mg/kg doses of Symadex™ would represent a level of drug exposure that would be commensurate with the “20 mg/kg every 72 hours” regimen in Example 4 and consistent with a mid level exposure between the 20 mg/kg and the 40 mg/kg schedule given weekly, in Example 2. The mitoxantrone dose was selected to reflect a typical high dose given to rats or mice by daily dosing in the prior art, but allometrically scaled to the guinea pig.

[5] = system: Experimental Autoimmune Encephalomyelitis (EAE); test: Chronic EAE, two doses 72 hours apart (Example 4); assay type: in vivo, guinea pig; settings: 20 mg/kg i.p., 2 doses 72 hours apart
Method: In order to test the possibility that a more frequent dosing schedule would offer a more rapid resolution of disease symptoms, an experiment was performed to match the dosing cycle to the observed periodicity of response. Accordingly, the method of Experiment 2 was applied to a cohort of animals and controls, which were allowed to reach the chronic phase of disease at 30 days post immunization. Six animals with a disease score of 1 were selected and half were treated with 20 mg/kg Symadex™ administered intraperitoneally. Two dose were given 72 hours apart to 3 animals. Three animals served as vehicle controls.

[6] = 1 nM, read-out: % Growth Inhibition
[7] = 10 nM, read-out: % Growth Inhibition
[8] = 0.1 μM, read-out: % Growth Inhibition
[9] = 1 μM, read-out: % Growth Inhibition
[10] = 10 μM, read-out: % Growth Inhibition
[11] = B-cell, read-out: % Growth Inhibition
[12] = necropsy after 15 daily doses, Symadex 6 mg/kg, mitoxantrone 0.35 mg/kg

CCN(CC)CCNc1ccc2ncn3c4ccc(O)cc4c(=O)c1c23 [Symadex™, 5-[[(diethylamino)ethyl]amino]-8-hydroxyimidazo[4,5,1-de]-acridine-6-one] gave an IC50 [1] of 1200 nM, an inhibition at 0.001 µM [1, 6] of 1% and an inhibition at 0.01 µM [1, 7] of 16%. It also gave an inhibition at 0.1 µM [1, 8] of 16%, an inhibition at 1 µM [1, 9] of 39% and an inhibition at 10 µM [1, 10] of 99%. The % inhibition of IL-4 release at 0.001 µM [2, 6] was 8%, the % inhibition of IL-4 release at 0.01 µM [2, 7] was 7% and the % inhibition of IL-4 release at 0.1 µM [2, 8] was 2%. The % inhibition of IL-4 release at 1 µM [2, 9] was -9%, the % inhibition of IL-4 release at 10 µM [2, 10] was 105% and the IC50 ([2]; IL-4 release) was 3330 nM. The inhibition at 1 µM [3, 11] was 101%, the inhibition at 10 µM [3, 11] was 103% and the IC50 ([3]; B-Cell + LPS) was 38 nM. For the same molecule, the inhibition at 0.001 µM ([3]; B-Cell + LPS, 1 nM, read-out: % Growth Inhibition) was 0%, the inhibition at 0.01 µM ([3]; B-Cell + LPS, 10 nM, read-out: % Growth Inhibition) was 38% and the inhibition at 0.1 µM ([3]; B-Cell + LPS, 0.1 μM, read-out: % Growth Inhibition) was 80%. For the same molecule, the “clinical score (neurological impairment)” value ([4]; daily i.p. for 15 days from day 7, Symadex 6 mg/kg, mitoxantrone 0.35 mg/kg) was “the initial rise in neurological impairment is arrested”, the “weight gain profile vs vehicle controls, statistical significance” value ([4]; guinea pig, in vivo) was “did not show statistical significance” and the “reduction of meningeal inflammation (M) pathology score” value [4, 12] was “does not”. The “reduction of perivascular cuffing (P), myelitis (E) and demyelination (D) pathology scores” value [4, 12] was “statistically significant differences (p value<0.05) from control” and the clinical scores [5] was “reversed the progression of disease and restored baseline clinical scores with just 2 doses”.
